The results in this text go back to patent US8592403B2, “Diazepine and diazocane compounds as MC4 agonists” (Pfizer Limited, priority 2008, dated 2013).

The target in one series is T1, human MC3 receptors (Homo sapiens, UniProt P41968).
T1 construct: stably transfected with full length cDNA encoding human MC1 or MC3 receptors; expressed in transfected cells
Put plainly: In vitro agonist potency (EC50) at melanocortin receptor type 3, cAMP in recombinant cell line. It is filed as cell-based. As to the method: Measurement of In Vitro Agonist Potency (EC50) of Compounds Against Melanocortin Receptors Type 1 and 3 (MC1 and MC3).
Activation of melanocortin (MC) receptors by agonists results in activation of intracellular adenylate cyclase enzymes that synthesise the second messenger signalling molecule, adenosine 3′,5′-cyclic monophosphate (cAMP). Changes in cAMP levels following treatment of recombinant MC1 and MC3 cell lines with test compound were measured and an MC1 and MC3 potency estimate (EC50) calculated as follows: […]
Human embryonic kidney (HEK) or Chinese hamster ovary cell lines stably transfected with full length cDNA encoding human MC1 or MC3 receptors, respectively, were established using standard molecular biology methods. Test compounds were dissolved in dimethyl sulfoxide (DMSO) at 4 mM. 11 point half log unit increment dilution series of test compound, typically starting at 50 uM were prepared in a buffer comprised of phosphate buffered saline (PBS), 2.5% DMSO and 0.05% pluronic F-127 surfactant. Freshly cultured cells at 80-90% confluence were harvested and re-suspended in Dulbecco's Modified Eagle's Medium (DMEM). Cells (10,000 for MC3, 20,000 for MC1) were added to the test compound dilution series in a 384 well assay plate and incubated for 1 hour at 37° C. The relative cAMP concentration in each well was then measured using a β-galactosidase enzyme fragment complementation method purchased in kit form as the Discoverx cAMP II kit from GE Healthcare/Amersham Biosciences UK. In the case of MC1,3-Isobutyl-1-methylxanthine (IBMX) at a concentration of 750 μM was included in DMEM as the cells were re-suspended for assay. […] Sigmoidal curves were fitted to plots of log10 inhibitor concentration vs percent effect using a custom made software application called SIGHTS and EC50 estimates determined by the software as the concentration of test compound giving an effect half way between the bottom and top asymptotes of the sigmoidal dose response curve. Each experiment included an EC50 determination for alpha melanocyte stimulating hormone, which was used as a standard to track assay consistency and allow fair comparison between EC50 estimates obtained in different experiments.

In the next series the target is T2, cytochrome P450 3A4 (Homo sapiens, UniProt P08684).
T2 construct: utilizes human liver microsomes together with isoform-specific clinical drug probes; from tissue; host or cells: human liver microsomes
T2 sequence (P08684 whole entry, canonical isoform): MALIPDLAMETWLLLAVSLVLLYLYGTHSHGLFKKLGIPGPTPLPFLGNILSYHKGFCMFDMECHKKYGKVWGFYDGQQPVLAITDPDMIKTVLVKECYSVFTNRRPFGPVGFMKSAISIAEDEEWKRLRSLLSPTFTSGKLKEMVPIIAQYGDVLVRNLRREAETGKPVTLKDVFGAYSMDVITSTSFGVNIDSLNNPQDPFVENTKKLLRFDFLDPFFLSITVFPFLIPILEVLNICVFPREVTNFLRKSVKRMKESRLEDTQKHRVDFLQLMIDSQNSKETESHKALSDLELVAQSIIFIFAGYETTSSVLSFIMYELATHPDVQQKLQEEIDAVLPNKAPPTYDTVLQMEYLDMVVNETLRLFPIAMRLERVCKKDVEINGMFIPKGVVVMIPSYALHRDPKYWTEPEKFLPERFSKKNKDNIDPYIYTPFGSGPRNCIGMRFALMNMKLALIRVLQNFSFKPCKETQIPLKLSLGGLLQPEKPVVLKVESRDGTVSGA
Put plainly: High density DDI 3 μM cocktail screen in human liver microsomes, midazolam probe. It is filed as in vitro ADME. To be noted: 3 µM. In outline: (§1)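 Pooled human liver microsomes incubated with isoform-specific clinical probe substrates as a cocktail (midazolam for CYP3A4), with or without test compound at 3 μM. Metabolite formation followed over time by LC-MS/MS. Inhibition expressed as a single-point percentage.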

Another series deals with MC4 receptor (Homo sapiens, UniProt P32245). Put plainly: MC4 EC50 functional potency (protocol E of US2005/0176772 / WO 2005/077935). It is filed as cell-based. As to the method:
The compounds of formula (I) of the present invention have utility as MCR4 agonists in the treatment of various disease states.
MC5 and MC4 EC50 activity was determined as described by assay protocols D and E, respectively, in US2005/0176772 (pages 28-30).

Series [1] in a line: In vitro metabolism rate determination, human liver microsome (HLM) assay. It is filed as in vitro ADME. The note with it: for HLM: Clint, app: human liver microsomes, unit assumed; for microsomal CLint at 1 μM: human, liver microsomes, read-out: HLM: Clint, app. In outline: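 Human liver microsomes at 0.5 nmol cytochrome P450/ml with 1 μM substrate, pre-warmed 5 min at 37° C, reaction started with NADP; samples taken 0–60 min and terminated. Substrate loss measured; first-order rate constant from log-linear regression converted to half-life or Clint (μl/min/mg protein).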

For another series, the target named is T3, CYP3A4 (Homo sapiens, UniProt P08684).
T3 construct: utilizes human liver microsomes together with isoform-specific clinical drug probes; from tissue; host or cells: human liver microsomes
T3 sequence (P08684 whole entry, canonical isoform): as above
Nature of the series: High density DDI 3 μM cocktail screen in human liver microsomes, midazolam probe. The series is classed as in vitro ADME. The note with it: human, liver microsomes, probe midazolam, read-out: % inhibition 3A4 @ 3 μM. An outline of the steps: as §1

The next series addresses T4, MC3 receptor (MC3R) (Homo sapiens, UniProt P41968).
T4 construct: expressed in transfected cells; host or cells: CHO-CRE MC3R cells (membranes)
Nature of the series: Nle4, D-Phe7-α-MSH inhibition at the MC3 receptor (competition binding, SPA, CHO-CRE MC3R membranes). In outline: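 Competition binding by SPA used CHO-CRE MC3R membranes on WGA beads with 0.06 nM [125I]Nle4,D-Phe7-α-MSH and 11 half-log competitor concentrations. Buffer was 25 mM HEPES, MgCl2, CaCl2, 1% Pluronic F68, pH7, incubated 12 h at room temperature. Non-specific binding was defined with 100 nM SHU9119, and Ki values were derived.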

The next series has as its target T5, MC4 receptor (MC4R) (Homo sapiens, UniProt P32245).
T5 construct: expressed in transfected cells; host or cells: CHO-CRE MC4R cells (membranes)
Nature of the series: Nle4, D-Phe7-α-MSH inhibition at the MC4 receptor (competition binding, SPA, CHO-CRE MC4R membranes). In outline:
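Competition binding by SPA used CHO-CRE MC4R membranes on WGA beads (0.15 ug membrane/well) with 0.06 nM [125I] Nle4, D-Phe7-α-MSH and 11 half-log competitor concentrations in duplicate. Buffer was 25 mM HEPES pH 7 with MgCl2, CaCl2, Pluronic F68 and protease inhibitors; incubation was 12 hours at room temperature. Non-specific binding was set with 100 nM SHU9119, and Ki was calculated.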

T4 sequence (P41968 whole entry): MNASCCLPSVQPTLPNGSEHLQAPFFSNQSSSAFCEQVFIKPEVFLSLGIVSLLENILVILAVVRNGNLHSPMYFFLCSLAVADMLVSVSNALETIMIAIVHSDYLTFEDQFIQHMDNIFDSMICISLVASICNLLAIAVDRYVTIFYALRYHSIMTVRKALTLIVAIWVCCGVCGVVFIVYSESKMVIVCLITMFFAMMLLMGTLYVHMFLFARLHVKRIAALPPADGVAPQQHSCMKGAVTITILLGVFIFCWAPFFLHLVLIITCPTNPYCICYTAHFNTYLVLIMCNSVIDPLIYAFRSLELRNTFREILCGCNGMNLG
T1 sequence (P41968 whole entry): as above
Chain of MC4 receptor (P32245 whole entry): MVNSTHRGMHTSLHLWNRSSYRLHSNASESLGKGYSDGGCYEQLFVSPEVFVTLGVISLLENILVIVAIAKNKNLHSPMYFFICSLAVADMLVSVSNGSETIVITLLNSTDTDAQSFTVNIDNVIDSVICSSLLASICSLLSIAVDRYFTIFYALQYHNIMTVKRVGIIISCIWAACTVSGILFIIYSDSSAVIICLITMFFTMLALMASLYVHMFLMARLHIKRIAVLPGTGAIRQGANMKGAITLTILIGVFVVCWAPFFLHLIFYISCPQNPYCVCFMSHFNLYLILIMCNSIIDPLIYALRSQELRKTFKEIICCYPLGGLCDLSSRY
T5 sequence (P32245 whole entry): as above

For `CS(=O)(=O)N1CCN(C(=O)[C@@H]2CN(c3ccc(C#N)cn3)C[C@H]2c2ccc(F)cc2F)CCCC1c1ccccc1` (single isomer, unassigned) [Example 40], the values for the 50% effective concentration (EC50) on human MC3 receptors and on MC4 receptor were 607 nM and 29 nM, respectively. On cytochrome P450 3A4, the “% inhibition 3A4 @ 3 μM” value is 79.5%. The HLM: Clint, app in series [1] came out at 156 µL/min/mg.
Regarding `CS(=O)(=O)N1CCN(C(=O)[C@@H]2CN(c3cccnn3)C[C@H]2c2ccc(F)cc2F)CCCC1c1ccc(Cl)cc1` (mixture of isomers) [Example 41], the half-maximal effective concentration (EC50) was 6670 nM on human MC3 receptors and 25.1 nM on MC4 receptor. Besides, the inhibition at 3 µM on CYP3A4 came out at 88%. Also, the microsomal CLint at 1 μM in series [1] was determined as 41 µL/min/mg.
On to `COC(=O)N1CCN(C(=O)[C@@H]2CN(c3ccc(C#N)nn3)C[C@H]2c2ccc(OC)cc2F)CCC[C@@H]1c1ccc(Cl)cc1` [Example 88], for which the values for the concentration for a half-maximal effect (EC50) on human MC3 receptors and at MC4 receptor were 148 nM and 5.38 nM, respectively. In addition, the Ki is 153 nM at MC3 receptor (MC3R) and 24 nM at MC4 receptor (MC4R).
In the case of `COc1ccc([C@@H]2CN(c3ccc(=O)[nH]n3)C[C@H]2C(=O)N2CCCC(c3ccc(Cl)cc3)N(S(C)(=O)=O)CC2)c(F)c1` (single isomer, unassigned) [Example 114], the “% inhibition 3A4 @ 3 μM” value at cytochrome P450 3A4 stood at 27.5%. The values for the inhibition constant (Ki) on MC3 receptor (MC3R) and on MC4 receptor (MC4R) were 1150 nM and 20.8 nM, respectively. On MC4 receptor, this compound showed an EC50 of 73.4 nM. The HLM: Clint, app in series [1] worked out at 16.4 µL/min/mg.
Consider `COC(=O)N1CCN(C(=O)[C@@H]2CN(c3ccc(C#N)nn3)CC2c2ccc(OC)cc2F)CCC[C@H]1c1ccc(Cl)cc1` (stereo partly drawn) [Example 89], for which the half-maximal effective concentration (EC50) stood at 764 nM on human MC3 receptors and 14.3 nM at MC4 receptor. For the same compound, the Ki stood at 402 nM at MC3 receptor (MC3R) and 31.3 nM on MC4 receptor (MC4R).
Take `COC(=O)N1CCN(C(=O)[C@@H]2CN(c3cccnn3)C[C@H]2c2ccc(F)cc2F)CCCC1c1ccccc1` (mixture of isomers) [Example 100]: the EC50 at human MC3 receptors was 436 nM; on MC4 receptor it was 7.16 nM. The inhibition at 3 µM at CYP3A4 was 65.5%. Further, in series [1], the microsomal CLint at 1 μM came to 83 µL/min/mg. Moreover, the inhibition constant Ki at MC4 receptor (MC4R) stood at 189 nM.
For `COc1ccc([C@@H]2CN(c3ccc(=O)n(C)n3)C[C@H]2C(=O)N2CCC[C@@H](c3ccc(Cl)cc3)N(C(=O)C(C)C)CC2)c(F)c1` [Example 31], the 50% effective concentration (EC50) on human MC3 receptors stood at 412 nM; on MC4 receptor, 1.23 nM. The inhibition at 3 µM at CYP3A4 came out at 40.8%. In addition, the microsomal CLint at 1 μM in series [1] was determined as 21.8 µL/min/mg. The affinity at MC4 receptor (MC4R), expressed as Ki, was 28.2 nM.
For `CS(=O)(=O)N1CCN(C(=O)[C@@H]2CN(c3ccc(C#N)cn3)C[C@H]2c2ccc(F)cc2F)CCCC1c1ccccc1` (single isomer, unassigned) [Example 39], the EC50 at human MC3 receptors was 942 nM; at MC4 receptor, 38 nM. Moreover, the inhibition at 3 µM on CYP3A4 came out at 87.5%. In series [1], the microsomal CLint at 1 μM stood at 177 µL/min/mg.
Consider `COc1ccc([C@@H]2CN(c3ccc(=O)n(C)n3)C[C@H]2C(=O)N2CCC[C@@H](c3ccc(Cl)cc3)N(C(=O)C3CC3)CC2)c(F)c1` [Example 29], for which the 50% effective concentration (EC50) stood at 506 nM on human MC3 receptors and 2.23 nM at MC4 receptor. Besides, the inhibition at 3 µM on CYP3A4 came to 60.8%. Also, the microsomal CLint at 1 μM in series [1] came to 21.4 µL/min/mg.
